# Several values for one entry are separate records, joined by “and”; a condition that tells them apart may be missing. Identical values can stand only once.
# Experiments:
# [1] = Example 5 plasma concentrations and pharmacokinetic parameters in male Gottingen minipigs; type: in vivo
# Procedure: […] At each time point, ˜2.0 ml of blood was withdrawn and transferred into a prelabeled K2EDTA coated vacutainers and mixed gently by inverting the tube to facilitate mixing of anticoagulant with the blood. Blood samples were kept on gel packs until centrifugation. The collected blood samples were centrifuged at 4,000 rpm for 10 min at 4° C. Plasma was separated after centrifugation. All plasma samples were transferred into pre-labeled (Animal ID No., Time point, Study No., and Group) tubes and stored at −70±10° C. until analysis. Blood glucose levels were determined for all blood collection time points.
# Bioanalysis was performed using fit-for-purpose liquid chromatography mass spectrometry (LC-MS/MS) method for the quantification of semaglutide in plasma samples. Linearity range was 1 to 204 ng/ml. Semaglutide were extracted from mini pigs plasma samples using solid phase extraction technique and quantified using LC-MS/MS with Electro Spray Ionization (ESI) and multiple reaction monitoring (MRM) in positive ionization mode.
# [2] = Example 6 semaglutide plasma levels in db/db mice; type: in vivo; conditions: 0.02 mg/kg/day SC daily
# Procedure: Naïve control, n=5 • 2. Vehicle (db/db mice) SC administered daily (dose-(vehicle) 1 ml/kg/day, for 42 days), n=10 • 3.
# Body weight and food consumption were monitored daily. Ad-lib fed blood glucose levels were measured every third day. Fasted blood glucose levels were measured on Day-14, Day-28 and Day-42. Glycated hemoglobin (hbA1c) levels were measured on Day-0, Day-28, and Day-42.
# db/db mice = assay: Example 4 death of an animal in db/db mice (Table 10B); type: in vivo; conditions: 0.4 mg/kg, SC, Daily, animal No. 3, after Day 7 (3 h), before Day 14
# in vivo = conditions: male, db/db, mouse, plasma, sc
# [3] = Example 4 semaglutide plasma concentrations in db/db mice; conditions: for Plasma concentrations, individual animals: SC, Daily, listed as Semaglutide API
structure (smiles),measurement,setting,value
"CC[C@H](C)[C@H](NC(=O)[C@H](Cc1ccccc1)NC(=O)[C@H](CCC(=O)O)NC(=O)[C@H](CCCCNC(=O)COCCOCCNC(=O)COCCOCCNC(=O)CC[C@H](NC(=O)CCCCCCCCCCCCCCCCC(=O)O)C(=O)O)NC(=O)[C@H](C)NC(=O)[C@H](C)NC(=O)[C@H](CCC(N)=O)NC(=O)CNC(=O)[C@H](CCC(=O)O)NC(=O)[C@H](CC(C)C)NC(=O)[C@H](Cc1ccc(O)cc1)NC(=O)[C@H](CO)NC(=O)[C@H](CO)NC(=O)[C@@H](NC(=O)[C@H](CC(=O)O)NC(=O)[C@H](CO)NC(=O)[C@@H](NC(=O)[C@H](Cc1ccccc1)NC(=O)[C@@H](NC(=O)CNC(=O)[C@H](CCC(=O)O)NC(=O)C(C)(C)NC(=O)[C@@H](N)Cc1cnc[nH]1)[C@@H](C)O)[C@@H](C)O)C(C)C)C(=O)N[C@@H](C)C(=O)N[C@@H](Cc1c[nH]c2ccccc12)C(=O)N[C@@H](CC(C)C)C(=O)N[C@H](C(=O)N[C@@H](CCCNC(=N)N)C(=O)NCC(=O)N[C@@H](CCCNC(=N)N)C(=O)NCC(=O)O)C(C)C [semaglutide, [Aib8, Lys26 (γGlu-2xOEG-C18 acid), Arg34]-hGLP-1-(7-37)-OH]",Mean plasma concentrations of semaglutide,"[1]; Group 2, repeated SC 0.008 mg/kg every 3 days until Day 28, n=3, 0 h",0 ng/mL
same,level at 6 h,"[1]; minipig, plasma, Group 2, repeated SC 0.008 mg/kg every 3 days until Day 28, n=3, 6 h",9.64 ng/mL
same,level at 12 h,"[1]; minipig, plasma, Group 2, repeated SC 0.008 mg/kg every 3 days until Day 28, n=3, 12 h",10.2 ng/mL
same,level at 24 h,"[1]; minipig, plasma, Group 2, repeated SC 0.008 mg/kg every 3 days until Day 28, n=3, 24 h",11 ng/mL
same,level at 48 h,"[1]; minipig, plasma, Group 2, repeated SC 0.008 mg/kg every 3 days until Day 28, n=3, 48 h",9.67 ng/mL
same,level at 72 h,"[1]; minipig, plasma, Group 2, repeated SC 0.008 mg/kg every 3 days until Day 28, n=3, 72 h",9.43 ng/mL
same,level at 84 h,"[1]; minipig, plasma, Group 2, repeated SC 0.008 mg/kg every 3 days until Day 28, n=3, 84 h",17.7 ng/mL
same,level at 144 h,"[1]; minipig, plasma, Group 2, repeated SC 0.008 mg/kg every 3 days until Day 28, n=3, 144 h",13.1 ng/mL
same,level at 156 h,"[1]; minipig, plasma, Group 2, repeated SC 0.008 mg/kg every 3 days until Day 28, n=3, 156 h",35 ng/mL
same,level at 216 h,"[1]; minipig, plasma, Group 2, repeated SC 0.008 mg/kg every 3 days until Day 28, n=3, 216 h",27.3 ng/mL
same,level at 228 h,"[1]; minipig, plasma, Group 2, repeated SC 0.008 mg/kg every 3 days until Day 28, n=3, 228 h",31.3 ng/mL
same,level at 288 h,"[1]; minipig, plasma, Group 2, repeated SC 0.008 mg/kg every 3 days until Day 28, n=3, 288 h",23 ng/mL
same,level at 300 h,"[1]; minipig, plasma, Group 2, repeated SC 0.008 mg/kg every 3 days until Day 28, n=3, 300 h",21.3 ng/mL
same,level at 360 h,"[1]; minipig, plasma, Group 2, repeated SC 0.008 mg/kg every 3 days until Day 28, n=3, 360 h",34 ng/mL
same,level at 504 h,"[1]; minipig, plasma, Group 2, repeated SC 0.008 mg/kg every 3 days until Day 28, n=3, 504 h (For G2)",27.3 ng/mL
same,level at 648 h,"[1]; minipig, plasma, Group 2, repeated SC 0.008 mg/kg every 3 days until Day 28, n=3, 648 h (For G2)",23.4 ng/mL
same,level at 720 h,"[1]; minipig, plasma, Group 2, repeated SC 0.008 mg/kg every 3 days until Day 28, n=3, 720 h (Day 30)",27 ng/mL
same,course of plasma levels,[2],fluctuations with increase in plasma levels 3 h post injections
same,Mortality (animal died),db/db mice,Animal died
same,level at 24 h,in vivo; 0.06 mg/kg/day,100 to 500 ng/mL
same,level at 24 h,in vivo; 0.4 mg/kg/day,500 to 4500 ng/mL
same,"Plasma concentrations, individual animals","[3]; 0.06 mg/kg, Day 1 (3 h), 0.06 mg/kg",230 ng/mL
same,"Plasma concentrations, individual animals","[3]; 0.06 mg/kg, Day 7 (0 h), 0.06 mg/kg",206 ng/mL
same,"Plasma concentrations, individual animals","[3]; 0.06 mg/kg, Day 7 (3 h), 0.06 mg/kg",855 ng/mL
same,"Plasma concentrations, individual animals","[3]; 0.06 mg/kg, Day 21 (0 h), 0.06 mg/kg",171 ng/mL and 269 ng/mL
same,"Plasma concentrations, individual animals","[3]; 0.06 mg/kg, Day 21 (3 h), 0.06 mg/kg",867 ng/mL
same,"Plasma concentrations, individual animals","[3]; 0.06 mg/kg, Day 28 (0 h), 0.06 mg/kg",320 ng/mL and 257 ng/mL
same,"Plasma concentrations, individual animals","[3]; 0.06 mg/kg, Day 28 (3 h), 0.06 mg/kg",474 ng/mL and 406 ng/mL
same,plasma levels at 3 hrs post injection,[3]; 0.06 mg/kg/day SC daily,increase in plasma levels
same,"Plasma concentrations, individual animals","[3]; 0.4 mg/kg, Day 1 (3 h), 0.4 mg/kg",1310 ng/mL
same,"Plasma concentrations, individual animals","[3]; 0.4 mg/kg, Day 14 (3 h), 0.4 mg/kg",6500 ng/mL
same,"Plasma concentrations, individual animals","[3]; 0.4 mg/kg, Day 21 (0 h), 0.4 mg/kg",2550 ng/mL
same,"Plasma concentrations, individual animals","[3]; 0.4 mg/kg, Day 28 (0 h), 0.4 mg/kg",2880 ng/mL and 1460 ng/mL
same,"Plasma concentrations, individual animals","[3]; 0.4 mg/kg, Day 28 (3 h), 0.4 mg/kg",6690 ng/mL
same,plasma levels 3 hrs post injection,[3]; 0.4 mg/kg/day SC daily,increase in plasma levels
same,dose dependence of the increase in plasma levels,[3]; between 0.06 and 0.4 mg/kg daily doses,dose proportional

# From patent US12514908B2 (MAPI PHARMA LTD., priority 2021, dated 2026)
